Test results as given in patent US20260272924A1, “ISOINDOLINE DERIVATIVE, BENZOINDOLE DERIVATIVE AND USE THEREOF” (SHANGHAI HELIOSON PHARMACEUTICAL CO., LTD., priority 2023, published 2026).

Each compound was assayed on NCI-H929 multiple myeloma cells (assay: Cell Titer-GLO (CTG) assay for proliferation of NCI-H929 cells). Settings: Homo sapiens, 72 hours.
Type: cell-based
Description: 1. Experimental objective: To determine inhibitory activities of compounds on NCI-H929 multiple myeloma cells.
NCI-H929 cells, purchased from Nanjing Cobioer Biotechnology Co., Ltd, were cultured in RPM11640 (Viva; C3010-0500) medium containing 10% fetal bovine serum (Viva, C04002-500) and 1% of penicillin-streptomycin at 37° C. with 5% of C02 and saturated humidity conditions.
The cells in logarithmic growth phase were plated at 5000 cells per well of a 96-well plate and after overnight incubation, compounds at 0.00512 nM, 0.0256 nM, 0.128 nM, 0.64 nM, 3.2 nM, 16 nM, 80 nM, and 400 nM were dosed into the plate with each dose in 2 duplicate wells. Cells were incubated at 37° C., 5% CO2 for 72 hours. After the incubation, the plate was placed at room temperature for half an hour, and then 50 μL of Cell Titer-Glo® (Promega, G7573) was added. The plate was placed on a shaker for uniform mixing for 2 minutes and was placed in the dark at room temperature for 10 minutes. The luminance signal was measured using SpectraMax Paradigm (Molecular Devices).
Cell activity inhibition rate (%)=1 00−(RLUcompound−RLUblank)/(RLUcontrol−RLUblank)×100%, where control refers to the 0.1% DMSO treatment group, and blank refers to the culture medium control. IC50 values and maximum inhibition rates of the compounds were calculated using a nonlinear regression function “Dose-Response-Inhibition” in Graphpad Prism 7.0.
`O=C1CC[C@H](N2Cc3c(OCc4ccc(CN5CCN(CC6CCN(c7cccc(-n8ccnc8)n7)CC6)CC5)cc4)cccc3C2=O)C(=O)N1` [Example 17, (S)-3-(4-((4-((4-((1-(6-(1H-imidazol-1-yl)pyridin-2-yl)piperidin-4-yl)methyl)piperazin-1-yl)methyl)benzyl)oxy)-1-oxoisoindolin-2-yl)pyridin-2,6-dione] showed an IC50 of 0.1 nM. Compound `Cc1nc(N2CCN(Cc3ccc(Cc4ccc5c6c(cccc46)C(=O)N5[C@H]4CCC(=O)NC4=O)cc3)CC2)cc(-n2cnc(C)n2)n1` [Example 46, (S)-3-(6-(4-((4-(2-methyl-6-(3-methyl-1H-1,2,4-triazol-1-yl)pyrimidin-4-yl)piperazin-1-yl)methyl)benzyl)-2-oxobenzo[cd]indol-1(2H)-yl)piperidin-2,6-dione] has an IC50 of 0.01 nM. `Cc1ncn(-c2cccc(N3CCN(Cc4ccc(Cc5ccc6c7c(cccc57)C(=O)N6[C@@H]5CCC(=O)NC5=O)cc4)CC3)n2)n1` [Example 38, (R)-3-(6-(4-((4-(6-(3-methyl-1H-1,2,4-triazol-1-yl)pyridin-2-yl)piperazin-1-yl)methyl)benzyl)-2-oxobenzo[cd]indol-1(2H)-yl)piperidin-2,6-dione] showed an IC50 of 0.03 nM. `N#Cc1cn(-c2nccc(N3CCN(Cc4ccc(Cc5ccc6c7c(cccc57)C(=O)N6C5CCC(=O)NC5=O)cc4)CC3)n2)cn1` (centres unmarked) [Example 44, 3-(6-(4-((4-(2-(4-cvano-1H-imidazol-1-yl)pyrimidin-4-yl)piperazin-1-yl)methyl)benzyl)-2-oxobenzo[cd]indol-1(2H)-yl)piperidin-2,6-dione] gave an IC50 of 0.01 nM. Compound `O=C1CCC(N2C(=O)c3cccc4c(Cc5ccc(CN6CCN(c7ccnc(-n8ccnc8C(F)(F)F)n7)CC6)cc5)ccc2c34)C(=O)N1` (centres unmarked) [Example 13, 3-(2-oxo-6-(4-((4-(2-(2-(trifluoromethyl)-1H-imidazol-1-yl)pyrimidin-4-yl)piperazin-1-yl)methyl)benzyl)benzo[cd]indol-1(2H)-yl)piperidin-2,6-dione] has an IC50 of 0.07 nM. `Cc1nc(N2CCN(Cc3ccc(Cc4ccc5c6c(cccc46)C(=O)N5C4CCC(=O)NC4=O)cc3)CC2)cc(-n2ncc(C(F)(F)F)n2)n1` (centres unmarked) [Example 76, 3-(6-(4-((4-(2-methyl-6-(4-(trifluoromethyl)-2H-1,2,3-triazol-2-yl)pyrimidin-4-yl)piperazin-1-yl)methyl)benzyl)-2-oxobenzo[cd]indol-1(2H)-yl)piperidin-2,6-dione] gave an IC50 of 0.1 nM. `O=C1CCC(N2C(=O)c3cccc4c(Cc5ccc(CN6CCN(c7ccnc(-n8cnc(C9CC9)c8)n7)CC6)cc5)ccc2c34)C(=O)N1` (centres unmarked) [Example 26, 3-(6-(4-((4-(2-(4-cyclopropvl-1H-imidazol-1-yl)pyrimidin-4-yl)piperazin-1-yl)methyl)benzyl)-2-oxobenzo[cd]indol-1(2H)-yl)piperidin-2,6-dione] was tested, and the IC50 was 0.06 nM. With `CC(C)N1CCN=C1c1cccc(N2CCN(Cc3ccc(Cc4ccc5c6c(cccc46)C(=O)N5C4CCC(=O)NC4=O)cc3)CC2)n1` (centres unmarked) [Example 79, 3-(6-(4-((4-(6-(1-isopropyl-4,5-dihydro-1H-imidazol-2-yl)pyridin-2-yl)piperazin-1-yl)methyl)benzyl)-2-oxobenzo[cd]indol-1(2H)-yl)piperidin-2,6-dione] the IC50 was 1.6 nM. Work on `Cc1nc(N2CCN(Cc3ccc(Cc4ccc5c6c(cccc46)C(=O)N5C4CCC(=O)NC4=O)cc3)CC2)cc(-n2cnc(C#N)c2)n1` (centres unmarked) [Example 51, 3-(6-(4-((4-(6-(-4-cyano-1H-imidazol-1-yl)-2-methylpyrimidin-4-yl)piperazin-1-yl)methyl)benzyl)-2-oxobenzo[cd]indol-1(2H)-yl)piperidin-2,6-dione] yielded an IC50 of 0.01 nM. Work on `O=C1CCC(N2C(=O)c3cccc4c(Cc5ccc(CN6CCN(c7cccc(-n8ccnc8)n7)CC6)cc5)ccc2c34)C(=O)N1` (centres unmarked) [Example 2, 3-(6-(4-((4-(6-(1H-imidazol-1-yl)pyridin-2-yl)piperazin-1-vi)methyl)benzyl)-2-oxobenzo[cd]indol-1(2H)-yl)piperidin-2,6-dione] yielded an IC50 of 0.02 nM. With `O=C1CCC(N2C(=O)c3cccc4c(Cc5ccc(CN6CCN(c7ccnc(-n8cnc(Cl)c8)n7)CC6)cc5)ccc2c34)C(=O)N1` (centres unmarked) [Example 43, 3-(6-(4-((4-(2-(4-chloro-1H-imidazol-1-yl)pyrimidin-4-yl)piperazin-1-yl)methyl)benzyl)-2-oxobenzo[cd]indol-1(2H)-yl)piperidin-2,6-dione] the IC50 was 0.02 nM. For `O=C1CCC(N2C(=O)c3cccc4c(Cc5ccc(CN6CCN(c7cc(C(F)(F)F)nc(-n8cnc(Cl)c8)n7)CC6)cc5)ccc2c34)C(=O)N1` (centres unmarked) [Example 74, 3-(6-(4-((4-(2-(4-chloro-1H-imidazol-1-yl)-6-(trifluoromethyl)pyrimidin-4-yl)piperazin-1-yl)methyl)benzyl)-2-oxobenzo[cd]indol-1(2H)-yl)piperidin-2,6-dione], the IC50 was 0.1 nM. In the case of `Cc1nc(N2CCN(Cc3ccc(Cc4ccc5c6c(cccc46)C(=O)N5C4CCC(=O)NC4=O)cc3)CC2)cc(-n2cnc(C(F)(F)F)n2)n1` (centres unmarked) [Example 70, 3-(6-(4-((4-(2-methyl-6-(3-(trifluoromethyl)-1H-1,2,4-triazol-1-yl)pyrimidin-4-yl)piperazin-1-yl)methyl)benzyl)-2-oxobenzo[cd]indol-1(2H)-yl)piperidin-2,6-dione], the IC50 is reported as 0.1 nM. In the case of `O=C1CCC(N2C(=O)c3cccc4c(Cc5ccc(CN6CC(CN7CCN(c8cccc(-n9ccnc9)n8)CC7)C6)cc5)ccc2c34)C(=O)N1` (centres unmarked) [Example 55, 3-(6-(4-((3-((4-(6-(1H-imidazol-1-yl)pyridin-2-yl)piperazin-1-yl)methyl)azetidin-1-yl)methyl)benzyl)-2-oxobenzo[cd]indol-1(2H)-yl)piperidin-2,6-dione], the IC50 is reported as 0.2 nM. Compound `Cc1ncn(-c2nccc(N3CCN(Cc4ccc(Cc5ccc6c7c(cccc57)C(=O)N6C5CCC(=O)NC5=O)cc4)CC3)n2)n1` (centres unmarked) [Example 41, 3-(6-(4-((4-(2-(3-methyl-1H-1,2,4-triazol-1-yl)pyrimidin-4-yl)piperazin-1-yl)methyl)benzyl)-2-oxobenzo[cd]indol-1(2H)-yl)piperidin-2,6-dione] has an IC50 of 0.006 nM. With `Cc1cc(C(=O)N2CCN(Cc3ccc(Cc4ccc5c6c(cccc46)C(=O)N5C4CCC(=O)NC4=O)cc3)CC2)nc(-n2ccnc2)n1` (centres unmarked) [Example 11, 3-(6-(4-((4-(2-(1H-imidazol-1-yl)-6-methylpyrimidin-4-carbonyl)piperazin-1-yl)methyl)benzyl)-2-oxobenzo[cd]indol-1(2H)-yl)piperidin-2,6-dione] the IC50 was 0.05 nM. With `Cn1c(-c2nccc(N3CCN(Cc4ccc(Cc5ccc6c7c(cccc57)C(=O)N6C5CCC(=O)NC5=O)cc4)CC3)n2)cnc1C(F)(F)F` (centres unmarked) [Example 61, 3-(6-(4-((4-(2-(1-methyl-2-(trifluoromethyl)-1H-imidazol-5-yl)pyrimidin-4-yl)piperazin-1-yl)methyl)benzyl)-2-oxobenzo[cd]indol-1(2H)-yl)piperidin-2,6-dione] the IC50 was 0.02 nM. Work on `O=C1CC[C@H](N2Cc3c(OCc4ccc(CN5CCN(c6ccnc(-c7cncs7)n6)CC5)cc4)cccc3C2=O)C(=O)N1` [Example 80, (S)-3-(1-oxo-4-((4-((4-(2-(thiazol-5-vi)pyrimidin-4-yl)piperazin-1-yl)methyl)benzyl)oxy)isoindolin-2-yl)piperidin-2,6-dione] yielded an IC50 of 0.4 nM. For `O=C1CCC(N2C(=O)c3cccc4c(Cc5ccc(CN6CCC(Nc7ccnc(-n8ccnc8)n7)CC6)cc5)ccc2c34)C(=O)N1` (centres unmarked) [Example 9, 3-(6-(4-((4-((2-(1H-imidazol-1-yl)pyrimidin-4-yl)amino)piperidin-1-yl)methyl)benzyl)-2-oxobenzo[cd]indol-1(2H)-yl)piperidin-2,6-dione], the IC50 was 0.07 nM. Compound `O=C1CCC(N2C(=O)c3cccc4c(Cc5ccc(CN6CCN(c7cc(C(F)(F)F)nc(-c8cncs8)n7)CC6)cc5)ccc2c34)C(=O)N1` (centres unmarked) [Example 59, 3-(2-oxo-6-(4-((4-(2-(thiazol-5-yl)-6-(trifluoromethyl)pyrimidin-4-yl)piperazin-1-yl)methyl)benzyl)benzo[cd]indol-1(2H)-yl)piperidin-2,6-dione] has an IC50 of 0.2 nM. `O=C1CCC(N2C(=O)c3cccc4c(Cc5ccc(CN6CCN(c7cc(C(F)(F)F)nc(-n8cnc(C(F)(F)F)c8)n7)CC6)cc5)ccc2c34)C(=O)N1` (centres unmarked) [Example 56, 3-(2-oxo-6-(4-((4-(6-(trifluoromethyl)-2-(4-(trifluoromethyl)-1H-imidazol-1-yl)pyrimidin-4-yl)piperazin-1-yl)methyl)benzyl)benzo[cd]indol-1(2H)-yl)piperidin-2,6-dione] gave an IC50 of 0.1 nM. `O=C1CCC(N2C(=O)c3cccc4c(Cc5ccc(CN6CCC(O[C@H]7CC[C@@H](NC(=O)c8cccc(-n9ccnc9)n8)CC7)CC6)cc5)ccc2c34)C(=O)N1` (some centres unmarked) [Example 27, N-((1s,4s)-4-((1-(4-((1-(2,6-dioxopiperidin-3-yl)-2-oxo-1,2-dihydrobenzo[cd]indol-6-yl)methyl)benzyl)piperidin-4-yl)oxy)cyclohexyl)-6-(1H-imidazol-1-yl)pyridin-2-carboxamide] showed an IC50 of 0.1 nM. Work on `Cc1ncc(-c2ncc(F)c(N3CCN(Cc4ccc(Cc5ccc6c7c(cccc57)C(=O)N6C5CCC(=O)NC5=O)cc4)CC3)n2)s1` (centres unmarked) [Example 67, 3-(6-(4-((4-(5-fluoro-2-(2-methylthiazol-5-yl)pyrimidin-4-yl)piperazin-1-yl)methyl)benzyl)-2-oxobenzo[cd]indol-1(2H)-yl)piperidin-2,6-dione] yielded an IC50 of 0.07 nM.
